From PMC4323687 (Neurobiology of disease, 2014)

What was measured:
[1] = system: mThy1-hAPP751 APPtg mouse model of AD; experiment: Aβ immunostaining of plaques in frontal cortex and hippocampus of APPtg mice; assay type: in vivo; settings: same treatments as E16
[2] = system: mThy1-hAPP751 APPtg mouse model of AD; experiment: Electron microscopy of neuropil and amyloid in APPtg mouse brain; assay type: in vivo; settings: same treatments as E16
[3] = system: mThy1-hAPP751 APPtg mouse model of AD; experiment: Immunohistochemistry of synaptophysin, MAP2, NeuN and GFAP in APPtg mouse brain; assay type: in vivo; settings: for synapse loss (SYN-immunoreactivity) in the frontal cortex / synapse loss (SYN-immunoreactivity) in the hippocampus: vs APPtg mice treated with PBS
Slack (Slo2.2) channels = settings: ref Yang et al., 2006; cited from earlier work
[4] = system: mThy1-hAPP751 APPtg mouse model of AD; experiment: Immunoblot of Aβ42 species in brain membrane fraction of APPtg mice; assay type: in vivo; settings: vs vehicle-treated APPtg mice
[5] = target: Aβ42 seeding-mediated fibril growth (Homo sapiens, UniProt P05067); experiment: Aβ42 seeding polymerization assay; assay type: biochemical; settings: for fibril growth and number of amyloid fibrils by TEM: 3 hours incubation of seeds and monomers with compound; for inhibition at 10 µM: read-out: inhibition of seeded fibril growth (seeding capacity of short fibrils)
Chain of Aβ42 seeding-mediated fibril growth (P05067 672-713 limits assumed): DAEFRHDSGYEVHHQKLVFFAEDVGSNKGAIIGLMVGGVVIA

monomeric Aβ42 = monomeric Aβ42 (Homo sapiens, UniProt P05067); experiment: Fibrillization of monomeric Aβ42; assay type: biochemical
Chain of monomeric Aβ42 (P05067 672-713 limits assumed): as above

[6] = Pharmacokinetics and brain distribution after single administration; assay type: in vivo, C57/BL6 mice
[7] = system: mThy1-hAPP751 APPtg mouse model of AD; experiment: Aβ42 ELISA in APPtg mouse brain; assay type: in vivo; settings: vs vehicle-treated APPtg mice
primary cortical neurons = settings: 0.5, 5, 10, 20 and 50 μM, 24 hours, MTT
Aβ = settings: ref Colombo et al., 2009; cited from earlier work
protofibrillar Aβ42 = protofibrillar Aβ42 (Homo sapiens, UniProt P05067); experiment: Conversion of Aβ42 protofibrils into mature fibrils; assay type: biochemical; settings: 48 hours, ThT
Chain of protofibrillar Aβ42 (P05067 672-713 limits assumed): as above

Row | SMILES | amyloid fibrils in neuropil by electron microscopy [2] | status of axons/neurites in neuropil by electron microscopy [2] | synapse loss (SYN-immunoreactivity) in the frontal cortex [3] | synapse loss (SYN-immunoreactivity) in the hippocampus [3] | MAP2 immunoreactivity (neuronal damage) in the frontal cortex ([3]; vs vehicle-treated APPtg mice) | MAP2 immunoreactivity (neuronal damage) in the hippocampus ([3]; vs vehicle-treated APPtg mice) | NeuN immunoreactivity in the frontal cortex ([3]; vs vehicle-treated APPtg mice) | levels of Aβ42 monomers and intermediate species (immunoblot, 82E1) [4] | IC50 [5] [µM] | fibril growth and number of amyloid fibrils by TEM [5] | inhibition at 10 µM [5] [%] | IC50 (monomeric Aβ42) [µM] | Aβ42 levels by ELISA, guanidine-HCl brain extractions [7] | Aβ42 levels by ELISA, membrane fractions [7] | further results
1 | Oc1c(Cl)cc(Cl)cc1Sc1cc(Cl)cc(Cl)c1O [bithionol] | only few fibrillar aggregates | axons were comparable to controls | significantly reversed | significantly reversed | reversion of the damage | reversion of the damage | increase | significant reduction | 5.33 | significant inhibition of fibril growth | 60 to 80 | 5.1 | significant and dramatic reduction | significant and dramatic reduction | Aβ42-immunoreactivity in the hippocampus (% area of neuropil) vs vehicle APPtg [1]: significant decrease; GFAP immunoreactivity (astroglial reactivity) in the frontal cortex ([3]; vs vehicle-treated APPtg mice): strong and significant reduction; activation of Slack channels (Slack (Slo2.2) channels): robust activator of Slack channels; half-life ([6]; C57/BL6, mouse, brain, iv, 10 mg/kg): 1.77 h; half-life ([6]; C57/BL6, mouse, plasma, iv, 10 mg/kg): 7.62 h
2 | Oc1c(Cl)cc(Cl)c(Cl)c1Cc1c(O)c(Cl)cc(Cl)c1Cl [hexachlorophene] | – | – | – | – | – | – | – | comparable to that observed in the vehicle-treated APPtg mice | 5.9 | significant inhibition of fibril growth | 60 to 80 | 5 | did not significantly affect | did not significantly affect | Kp ([6]; C57/BL6, mouse, in vivo, iv, 10 mg/kg): 0.5; brain penetration ([6]; single IV administration 10 mg/kg): 50%
3 | O=C1c2c(O)ccc(O)c2C(=O)c2c(NCCNCCO)ccc(NCCNCCO)c21 [mitoxantrone] | only few fibrillar aggregates | axons were comparable to controls | significantly reversed | significantly reversed | reversion of the damage | reversion of the damage | increase | significant reduction | 1.7 | significant inhibition of fibril growth | 80 to 90 | 2.5 | significant and dramatic reduction | significant and dramatic reduction | effect of compound alone on cellular viability of neurons (primary cortical neurons): significant reduction of the cellular viability only at high concentrations; Aβ oligomerization and fibril formation (Aβ): can block Aβ oligomerization and fibril formation; inhibition of protofibril to fibril conversion (protofibrillar Aβ42): > 80%
